What was measured:
human MER = molecular target: T1, human MER (Homo sapiens, UniProt Q12866); assay: HTRF KinEASE-TK biochemical potency assay, MER; settings: 1 nM MER, 700 μM ATP, 800 nM TK Substrate-biotin
T1 construct: purchased Invitrogen
T1 sequence (Q12866 21-999): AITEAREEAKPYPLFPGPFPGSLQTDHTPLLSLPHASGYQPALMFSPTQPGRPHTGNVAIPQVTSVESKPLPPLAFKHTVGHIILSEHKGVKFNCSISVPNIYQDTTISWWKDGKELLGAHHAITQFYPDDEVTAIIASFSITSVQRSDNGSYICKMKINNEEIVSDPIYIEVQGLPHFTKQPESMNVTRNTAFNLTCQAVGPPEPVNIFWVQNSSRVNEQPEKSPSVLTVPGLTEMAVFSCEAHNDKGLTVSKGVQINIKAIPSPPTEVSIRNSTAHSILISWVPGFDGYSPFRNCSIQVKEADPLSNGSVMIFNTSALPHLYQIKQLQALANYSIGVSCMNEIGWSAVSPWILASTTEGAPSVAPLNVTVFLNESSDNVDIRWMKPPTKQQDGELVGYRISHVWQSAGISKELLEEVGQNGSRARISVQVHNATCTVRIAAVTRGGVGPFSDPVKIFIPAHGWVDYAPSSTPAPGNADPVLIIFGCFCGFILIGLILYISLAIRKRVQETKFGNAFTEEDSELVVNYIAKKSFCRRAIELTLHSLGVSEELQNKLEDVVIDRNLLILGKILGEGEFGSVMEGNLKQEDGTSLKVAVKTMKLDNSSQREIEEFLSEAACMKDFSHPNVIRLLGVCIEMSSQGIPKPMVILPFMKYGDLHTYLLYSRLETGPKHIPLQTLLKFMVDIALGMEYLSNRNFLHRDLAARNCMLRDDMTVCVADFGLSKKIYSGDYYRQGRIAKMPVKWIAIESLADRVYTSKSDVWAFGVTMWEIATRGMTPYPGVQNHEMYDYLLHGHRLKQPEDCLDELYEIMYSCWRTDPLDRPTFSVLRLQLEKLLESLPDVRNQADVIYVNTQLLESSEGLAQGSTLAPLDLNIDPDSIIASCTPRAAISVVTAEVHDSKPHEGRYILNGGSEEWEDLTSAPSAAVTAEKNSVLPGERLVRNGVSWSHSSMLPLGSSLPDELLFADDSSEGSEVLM
Method in brief: (§1)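 Final conditions: 5 nM AXL, 1 nM TYRO3 or MER, 50 mM HEPES pH 7.4, 10 mM MgCl2, 0.01% BSA, 1 mM DTT, 700 μM ATP. Reaction ran 2 h at RT after 1 h preincubation with compound; HTRF signal read at 665/620 nm.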

Axl = molecular target: T2, Axl (Homo sapiens, UniProt P30530); assay: HTRF KinEASE-TK biochemical potency assay, AXL; set-up: purchased Invitrogen; settings: 5 nM AXL, 700 μM ATP, 800 nM TK Substrate-biotin
T2 sequence (P30530 26-894): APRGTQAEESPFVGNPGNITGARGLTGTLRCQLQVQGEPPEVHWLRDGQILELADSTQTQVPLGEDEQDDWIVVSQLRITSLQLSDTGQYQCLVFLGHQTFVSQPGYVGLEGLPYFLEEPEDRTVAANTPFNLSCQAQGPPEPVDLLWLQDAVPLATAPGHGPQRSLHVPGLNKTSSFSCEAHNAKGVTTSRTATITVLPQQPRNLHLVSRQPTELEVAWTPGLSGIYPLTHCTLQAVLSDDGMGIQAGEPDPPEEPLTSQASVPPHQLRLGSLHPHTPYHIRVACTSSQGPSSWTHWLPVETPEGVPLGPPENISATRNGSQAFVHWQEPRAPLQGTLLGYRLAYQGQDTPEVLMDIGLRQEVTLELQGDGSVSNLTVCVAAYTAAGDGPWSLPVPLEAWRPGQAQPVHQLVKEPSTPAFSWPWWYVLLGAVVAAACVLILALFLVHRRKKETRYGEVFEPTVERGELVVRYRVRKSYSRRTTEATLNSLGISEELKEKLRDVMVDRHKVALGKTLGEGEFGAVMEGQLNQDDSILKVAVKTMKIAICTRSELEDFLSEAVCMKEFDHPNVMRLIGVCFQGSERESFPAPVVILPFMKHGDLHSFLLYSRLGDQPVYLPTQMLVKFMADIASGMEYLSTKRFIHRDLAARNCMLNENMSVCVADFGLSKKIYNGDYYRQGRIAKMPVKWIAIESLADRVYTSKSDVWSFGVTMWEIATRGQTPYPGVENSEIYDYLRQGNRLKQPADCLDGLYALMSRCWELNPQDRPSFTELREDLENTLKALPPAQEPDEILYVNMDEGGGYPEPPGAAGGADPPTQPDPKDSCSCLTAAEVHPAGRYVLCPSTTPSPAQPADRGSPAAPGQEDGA
Method in brief: as §1

IC50 (human MER)	IC50 (Axl)	Structure (SMILES)
> 1000 nM	< 100 nM	c1cc2c(cc1-c1cnc3[nH]nc(-c4ccc(N5C[C@H]6C[C@@H]5CO6)cc4)c3c1)CC[C@@H](N1C3COCC1C3)CC2 [Example 126, (1R,4R)-5-(4-{5-[(7S)-7-{3-oxa-6-azabicyclo[3.1.1]heptan-6-yl}-6,7,8,9-tetrahydro-5H-benzo[7]annulen-2-yl]-2H-pyrazolo[3,4-b]pyridin-3-yl}phenyl)-2-oxa-5-azabicyclo[2.2.1]heptane]
> 1000 nM	< 100 nM	FC1CN(c2ccc(-c3c[nH]c4ncc(-c5ccc6c(c5)CC[C@@H](N5C7COCC5C7)CC6)cc34)cc2)C1 [Example 127, 6-[(7S)-2-{3-[4-(3-fluoroazetidin-1-yl)phenyl]-1H-pyrrolo[2,3-b]pyridin-5-yl}-6,7,8,9-tetrahydro-5H-benzo[7]annulen-7-yl]-3-oxa-6-azabicyclo[3.1.1]heptane]

Reference: patent US20240246967A1, “AXL COMPOUNDS” (ARCUS BIOSCIENCES, INC., priority 2021, published 2024)
